PubChem BioAssay AID2060623 (Molecular Pharmacology Branch, DTP, NCI, 2025)

System: 227483-062-R1-J1-PDC complex spheroids with HUVEC/MSC, viability
Experiment: Anticancer human tumor 227483-062-R1-J1-PDC patient-derived pancreatic carcinoma cell line growth inhibition [CLK]
Conditions: for IC50: curve of first compound; for viability, T/C: stronger effect = lower value
Method in brief: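 Patient-derived tumor cells grown as complex spheroids with HUVEC endothelial cells and mesenchymal stem cells, treated with drug combinations. Concentrations descend in half-log steps from near clinical Cmax, or from 10 microM if Cmax unknown.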

[1] = second compound 0.0316 µM, first compound 0.00949 µM
[2] = second compound 0.0316 µM, first compound 0.03 µM
[3] = second compound 0.0316 µM, first compound 0.0949 µM
[4] = second compound 0.0316 µM, first compound 0.3 µM
[5] = second compound 0.1 µM, first compound 0.00949 µM
[6] = second compound 0.1 µM, first compound 0.03 µM
[7] = second compound 0.1 µM, first compound 0.0949 µM
[8] = second compound 0.1 µM, first compound 0.3 µM
[9] = second compound 0.316 µM, first compound 0.00949 µM
[10] = second compound 0.316 µM, first compound 0.03 µM
[11] = second compound 0.316 µM, first compound 0.0949 µM
[12] = second compound 0.316 µM, first compound 0.3 µM
[13] = second compound 1 µM, first compound 0.00949 µM
[14] = second compound 1 µM, first compound 0.03 µM
[15] = second compound 1 µM, first compound 0.0949 µM
[16] = second compound 1 µM, first compound 0.3 µM
[17] = second compound 3.16 µM, first compound 0.00949 µM
[18] = second compound 3.16 µM, first compound 0.03 µM
[19] = second compound 3.16 µM, first compound 0.0949 µM
[20] = second compound 3.16 µM, first compound 0.3 µM
[21] = second compound 10 µM, first compound 0.00949 µM
[22] = second compound 10 µM, first compound 0.03 µM
[23] = second compound 10 µM, first compound 0.0949 µM
[24] = second compound 10 µM, first compound 0.3 µM
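Further: spheroids exposed to compounds for seven days before readout.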
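Wherever viability, T/C is given: percent of DMSO vehicle control luminescence as 100% viability.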

**Q.** What does the source list for `C=CC(=O)Nc1cc(Nc2nccc(-c3cn(C)c4ccccc34)n2)c(OC)cc1N(C)CCN(C)C` + CNC(=O)c1ccc(Nc2nc(OC3CCCC3)c3c(-c4ccc5nc(C)oc5c4)c[nH]c3n2)c(OC)c1?
**A.** IC50 (second compound 0.0316 µM): > 0.3 µM; IC50 (second compound 0.1 µM): > 0.3 µM; IC50 (second compound 0.316 µM): > 0.3 µM; IC50 (second compound 1 µM): > 0.3 µM; IC50 (second compound 3.16 µM): < 0.000949 µM; IC50 (second compound 10 µM): < 0.000949 µM; viability, T/C (second compound 0.0316 µM, first compound 0.000949 µM): 95.2%; viability, T/C (second compound 0.0316 µM, first compound 0.003 µM): 94.2%; viability, T/C [1]: 108%; viability, T/C [2]: 98.6%; viability, T/C [3]: 76.4%; viability, T/C [4]: 80.8%; viability, T/C (second compound 0.1 µM, first compound 0.000949 µM): 93.7%; viability, T/C (second compound 0.1 µM, first compound 0.003 µM): 103%; viability, T/C [5]: 85.4%; viability, T/C [6]: 102%; viability, T/C [7]: 71.9%; viability, T/C [8]: 69.7%; viability, T/C (second compound 0.316 µM, first compound 0.000949 µM): 73.1%; viability, T/C (second compound 0.316 µM, first compound 0.003 µM): 84.8%; viability, T/C [9]: 89.9%; viability, T/C [10]: 63.8%; viability, T/C [11]: 83.7%; viability, T/C [12]: 60.3%; viability, T/C (second compound 1 µM, first compound 0.000949 µM): 58.6%; viability, T/C (second compound 1 µM, first compound 0.003 µM): 50.4%; viability, T/C [13]: 69.6%; viability, T/C [14]: 66.1%; viability, T/C [15]: 56.2%; viability, T/C [16]: 49.6%; viability, T/C (second compound 3.16 µM, first compound 0.000949 µM): 45.4%; viability, T/C (second compound 3.16 µM, first compound 0.003 µM): 47.5%; viability, T/C [17]: 52.5%; viability, T/C [18]: 42.2%; viability, T/C [19]: 51.1%; viability, T/C [20]: 52.2%; viability, T/C (second compound 10 µM, first compound 0.000949 µM): 42.5%; viability, T/C (second compound 10 µM, first compound 0.003 µM): 41.9%; viability, T/C [21]: 38.4%; viability, T/C [22]: 40.9%; viability, T/C [23]: 51.4%; viability, T/C [24]: 32.9%

**Q.** For `NC(=O)C(=Cn1cnc(-c2cc(C(F)(F)F)cc(C(F)(F)F)c2)n1)c1cncnc1` + CNC(=O)c1ccc(Nc2nc(OC3CCCC3)c3c(-c4ccc5nc(C)oc5c4)c[nH]c3n2)c(OC)c1, which IC50 (second compound 0.0316 µM) is on record?
**A.** 0.379 µM

**Q.** And the IC50 (second compound 0.1 µM)?
**A.** 0.332 µM

**Q.** And the IC50 (second compound 0.316 µM)?
**A.** 0.192 µM

**Q.** What about the IC50 (second compound 1 µM) of the same compound?
**A.** 0.0318 µM

**Q.** And the IC50 (second compound 3.16 µM)?
**A.** < 0.00949 µM

**Q.** And the IC50 (second compound 10 µM)?
**A.** < 0.00949 µM

**Q.** And the viability, T/C [1]?
**A.** 73.6%

**Q.** What about the viability, T/C [2] of the same compound?
**A.** 81.8%

**Q.** And the viability, T/C [3]?
**A.** 73.2%

**Q.** And the viability, T/C [4]?
**A.** 53.4%

**Q.** And the viability, T/C (second compound 0.0316 µM, first compound 0.949 µM)?
**A.** 29.8%

**Q.** What about the viability, T/C (second compound 0.0316 µM, first compound 3 µM) of the same compound?
**A.** 9.82%

**Q.** What about the viability, T/C [5] of the same compound?
**A.** 86.3%

**Q.** And the viability, T/C [6]?
**A.** 77.2%

**Q.** What about the viability, T/C [7] of the same compound?
**A.** 62.4%

**Q.** And the viability, T/C [8]?
**A.** 60.7%

**Q.** And the viability, T/C (second compound 0.1 µM, first compound 0.949 µM)?
**A.** 24.6%

**Q.** And the viability, T/C (second compound 0.1 µM, first compound 3 µM)?
**A.** 5.03%

**Q.** What about the viability, T/C [9] of the same compound?
**A.** 61.4%

**Q.** And the viability, T/C [10]?
**A.** 80.7%

**Q.** What about the viability, T/C [11] of the same compound?
**A.** 61.2%

**Q.** What about the viability, T/C [12] of the same compound?
**A.** 41%

**Q.** What about the viability, T/C (second compound 0.316 µM, first compound 0.949 µM) of the same compound?
**A.** 14.7%

**Q.** What about the viability, T/C (second compound 0.316 µM, first compound 3 µM) of the same compound?
**A.** 2.56%

**Q.** What about the viability, T/C [13] of the same compound?
**A.** 46.4%

**Q.** And the viability, T/C [14]?
**A.** 56.3%

**Q.** What about the viability, T/C [15] of the same compound?
**A.** 43.4%

**Q.** What about the viability, T/C [16] of the same compound?
**A.** 25.6%

**Q.** What about the viability, T/C (second compound 1 µM, first compound 0.949 µM) of the same compound?
**A.** 6.77%

**Q.** And the viability, T/C (second compound 1 µM, first compound 3 µM)?
**A.** 2%

**Q.** What about the viability, T/C [17] of the same compound?
**A.** 43%

**Q.** What about the viability, T/C [18] of the same compound?
**A.** 35.8%

**Q.** What about the viability, T/C [19] of the same compound?
**A.** 26.9%

**Q.** And the viability, T/C [20]?
**A.** 11.7%

**Q.** And the viability, T/C (second compound 3.16 µM, first compound 0.949 µM)?
**A.** 2.83%

**Q.** What about the viability, T/C (second compound 3.16 µM, first compound 3 µM) of the same compound?
**A.** 2.08%

**Q.** And the viability, T/C [21]?
**A.** 40.6%

**Q.** What about the viability, T/C [22] of the same compound?
**A.** 37.3%

**Q.** And the viability, T/C [23]?
**A.** 22%

**Q.** What about the viability, T/C [24] of the same compound?
**A.** 7.23%

**Q.** What about the viability, T/C (second compound 10 µM, first compound 0.949 µM) of the same compound?
**A.** 2.36%

**Q.** And the viability, T/C (second compound 10 µM, first compound 3 µM)?
**A.** 1.41%

**Q.** Which IC50 (second compound 0.0316 µM) does the source give for `Nc1ccccc1NC(=O)c1ccc(CNC(=O)OCc2cccnc2)cc1` + CNC(=O)c1ccc(Nc2nc(OC3CCCC3)c3c(-c4ccc5nc(C)oc5c4)c[nH]c3n2)c(OC)c1 here?
**A.** > 10 µM

**Q.** And the IC50 (second compound 0.1 µM)?
**A.** 8.51 µM

**Q.** And the IC50 (second compound 0.316 µM)?
**A.** 5.13 µM

**Q.** And the IC50 (second compound 1 µM)?
**A.** 0.531 µM

**Q.** What about the IC50 (second compound 3.16 µM) of the same compound?
**A.** < 0.0316 µM

**Q.** What about the IC50 (second compound 10 µM) of the same compound?
**A.** < 0.0316 µM

**Q.** And the viability, T/C (second compound 0.0316 µM, first compound 0.0316 µM)?
**A.** 90.9%

**Q.** And the viability, T/C (second compound 0.0316 µM, first compound 0.1 µM)?
**A.** 88.5%

**Q.** And the viability, T/C (second compound 0.0316 µM, first compound 0.316 µM)?
**A.** 109%

**Q.** And the viability, T/C (second compound 0.0316 µM, first compound 1 µM)?
**A.** 111%

**Q.** And the viability, T/C (second compound 0.0316 µM, first compound 3.16 µM)?
**A.** 118%

**Q.** And the viability, T/C (second compound 0.0316 µM, first compound 10 µM)?
**A.** 75.8%

**Q.** What about the viability, T/C (second compound 0.1 µM, first compound 0.0316 µM) of the same compound?
**A.** 73.3%

**Q.** What about the viability, T/C (second compound 0.1 µM, first compound 0.1 µM) of the same compound?
**A.** 88.6%

**Q.** And the viability, T/C (second compound 0.1 µM, first compound 0.316 µM)?
**A.** 94.6%

**Q.** And the viability, T/C (second compound 0.1 µM, first compound 1 µM)?
**A.** 107%

**Q.** And the viability, T/C (second compound 0.1 µM, first compound 3.16 µM)?
**A.** 96.5%

**Q.** What about the viability, T/C (second compound 0.1 µM, first compound 10 µM) of the same compound?
**A.** 43%

**Q.** And the viability, T/C (second compound 0.316 µM, first compound 0.0316 µM)?
**A.** 82.1%

**Q.** What about the viability, T/C (second compound 0.316 µM, first compound 0.1 µM) of the same compound?
**A.** 72.9%

**Q.** What about the viability, T/C (second compound 0.316 µM, first compound 0.316 µM) of the same compound?
**A.** 78.7%

**Q.** What about the viability, T/C (second compound 0.316 µM, first compound 1 µM) of the same compound?
**A.** 78.3%

**Q.** And the viability, T/C (second compound 0.316 µM, first compound 3.16 µM)?
**A.** 65.8%

**Q.** And the viability, T/C (second compound 0.316 µM, first compound 10 µM)?
**A.** 28%

**Q.** What about the viability, T/C (second compound 1 µM, first compound 0.0316 µM) of the same compound?
**A.** 53.6%

**Q.** And the viability, T/C (second compound 1 µM, first compound 0.1 µM)?
**A.** 45.7%

**Q.** And the viability, T/C (second compound 1 µM, first compound 0.316 µM)?
**A.** 53.4%

**Q.** What about the viability, T/C (second compound 1 µM, first compound 1 µM) of the same compound?
**A.** 50.1%

**Q.** What about the viability, T/C (second compound 1 µM, first compound 3.16 µM) of the same compound?
**A.** 40.6%

**Q.** And the viability, T/C (second compound 1 µM, first compound 10 µM)?
**A.** 14.5%

**Q.** What about the viability, T/C (second compound 3.16 µM, first compound 0.0316 µM) of the same compound?
**A.** 37.4%

**Q.** What about the viability, T/C (second compound 3.16 µM, first compound 0.1 µM) of the same compound?
**A.** 44.2%

**Q.** What about the viability, T/C (second compound 3.16 µM, first compound 0.316 µM) of the same compound?
**A.** 39.7%

**Q.** What about the viability, T/C (second compound 3.16 µM, first compound 1 µM) of the same compound?
**A.** 30.1%

**Q.** What about the viability, T/C (second compound 3.16 µM, first compound 3.16 µM) of the same compound?
**A.** 17.3%

**Q.** And the viability, T/C (second compound 3.16 µM, first compound 10 µM)?
**A.** 7.51%

**Q.** What about the viability, T/C (second compound 10 µM, first compound 0.0316 µM) of the same compound?
**A.** 33%

**Q.** What about the viability, T/C (second compound 10 µM, first compound 0.1 µM) of the same compound?
**A.** 30.8%

**Q.** And the viability, T/C (second compound 10 µM, first compound 0.316 µM)?
**A.** 32.2%

**Q.** What about the viability, T/C (second compound 10 µM, first compound 1 µM) of the same compound?
**A.** 19.4%

**Q.** What about the viability, T/C (second compound 10 µM, first compound 3.16 µM) of the same compound?
**A.** 16.6%

**Q.** What about the viability, T/C (second compound 10 µM, first compound 10 µM) of the same compound?
**A.** 5.89%
